{"source": "patent US20200396973A1", "about": "“PSORIASIS-INDUCED ANIMAL MODEL AND USE THEREOF” (CUROGEN TECHNOLOGY CO., LTD., priority 2016, published 2020)", "tested_on": "Peli1 transgenic mice (rtTA-Peli1)", "experimental": "Tissues of mice were fixed using 10% neutral buffered formalin to produce paraffin blocks. Sections having a thickness of 3 μm were obtained from the paraffin blocks, and then stained with hematoxylin & eosin (H&E). In the case of immunohistochemistry, staining was performed using an anti-K14 antibody, an anti-Ki67 antibody, an anti-CD31 antibody, and an anti-CD3 antibody, followed by mounting using a mounting medium containing a DAPI reagent. Images of the stained tissue samples were acquired using an AxioCam digital microscope camera and AxioVision image processing software (Carl Zeiss)."}
{"smiles": "CN(Cc1cnc2nc(N)nc(N)c2n1)c1ccc(C(=O)N[C@@H](CCC(=O)O)C(=O)O)cc1", "note": "[methotrexate]", "values": [{"measurement": "thickness of the skin", "setting": "rtTA-Peli1 mice with psoriasis phenotypes after doxycycline, intraperitoneal injection for a certain period, FIG. 8D", "result": "about half of the thickness of the skin was reduced"}, {"measurement": "increase in the thickness of the skin according to the proliferation of epidermal cells (H&E staining)", "setting": "rtTA-Peli1 mice, doxycycline 12 weeks, after administration of CsA or MTX, FIG. 8B", "result": "still observed"}, {"measurement": "phenotypes of parakeratosis, hyperkeratosis, rete ridge, and microabscess (skin layer structure, H&E staining)", "setting": "rtTA-Peli1 mice, doxycycline 12 weeks, then CsA 6 times a week or MTX 4 times a week intraperitoneally, FIG. 8B", "result": "most of the phenotypes of parakeratosis, hyperkeratosis, rete ridge, and microabscess shown in the Peli1 transgenic mice (rtTA-Peli1) disappeared"}, {"measurement": "psoriasis phenotype score", "setting": "rtTA-Peli1 mice, doxycycline 12 weeks, then intraperitoneal injection for a certain period, scoring per Table 1, FIG. 8C", "result": "reduced"}]}
